Among the test systems are CCRF-CEM leukemia; MDA-MB-231 breast; MDA-N; NCI-H226 lung; OVCAR-3 ovarian; SK-OV-3 ovarian; SNB-75 CNS; SW-620 colon; A498 renal; RPMI-8226 leukemia.
Assay in all cases: NCI-60 cell line screen, 48 h

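Five compound concentrations were applied to cells in 96-well plates for 48 hours; endpoints were derived by simple linear interpolation of the resulting dose-response curve. Here, GI50 denotes the concentration required for 50% inhibition of growth. TGI is the concentration that stops growth completely.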

For the molecule `CCSCC(=O)N1CCc2c([nH]c3ccccc23)C1=O`, the TGI in the assay with CCRF-CEM leukemia, in the assay with MDA-MB-231 breast, in the assay with MDA-N, in the assay with NCI-H226 lung, in the assay with OVCAR-3 ovarian and in the assay on SK-OV-3 ovarian was greater than 100 µM each time. Further, the TGI in the assay on SNB-75 CNS and with SW-620 colon was greater than 100 µM throughout.
Turning to `N#Cc1ccc(/C=N/NC(=O)CSCC(=O)N/N=C/c2ccc(C#N)cc2)cc1`, the TGI in the assay on A498 renal is greater than 100 µM; with MDA-MB-231 breast, 81.7 µM; in the assay on NCI-H226 lung it was greater than 100 µM; with OVCAR-3 ovarian, greater than 100 µM; in the assay on RPMI-8226 leukemia, greater than 100 µM; with SK-OV-3 ovarian it was greater than 100 µM. Besides, the TGI in the assay with SNB-75 CNS was 81.9 µM; with SW-620 colon, greater than 100 µM.
Take `Cc1ccc(S(=O)(=O)NC(=O)NC(Cc2ccccc2)C(=O)O)cc1` (centres undefined): the TGI with CCRF-CEM leukemia, in the assay with MDA-MB-231 breast, in the assay with RPMI-8226 leukemia, in the assay with SK-OV-3 ovarian, with SNB-75 CNS and in the assay on SW-620 colon was greater than 100 µM throughout.
In the case of `Fc1ccc(C2NC(=S)NC3=C2CCOc2c3ccc3ccccc23)cc1` (centres undefined), the TGI with A498 renal was 79.5 µM; in the assay with CCRF-CEM leukemia, greater than 100 µM; in the assay with OVCAR-3 ovarian it was greater than 100 µM; with RPMI-8226 leukemia, greater than 100 µM; in the assay on SK-OV-3 ovarian, greater than 100 µM; in the assay with SNB-75 CNS it was greater than 100 µM. In the assay on SW-620 colon, the TGI is greater than 100 µM.
As for `O=c1c(/C=C/c2c(O)ccc3ccccc23)nnc2sc(-c3cccc([N+](=O)[O-])c3)nn12`, the TGI in the assay with MDA-MB-231 breast is 58 µM; with MDA-N it was greater than 100 µM; with OVCAR-3 ovarian, 7.23 µM; in the assay on RPMI-8226 leukemia, greater than 100 µM; in the assay with SK-OV-3 ovarian it was greater than 100 µM; in the assay with SW-620 colon, greater than 100 µM.
In the case of `O=c1[nH]c2nccnc2c2c([N+](=O)[O-])cccc12`, the TGI in the assay with A498 renal, in the assay on CCRF-CEM leukemia, in the assay with MDA-N, with NCI-H226 lung, with OVCAR-3 ovarian and in the assay on RPMI-8226 leukemia was greater than 100 µM throughout. For the same molecule, the TGI in the assay on SK-OV-3 ovarian, in the assay with SNB-75 CNS and in the assay on SW-620 colon was greater than 100 µM each time.
For the molecule `O=C1OC(C2Cc3ccccc3C2=O)c2ccccc21` (centres undefined), the TGI in the assay on CCRF-CEM leukemia, in the assay on MDA-MB-231 breast, with MDA-N, in the assay on NCI-H226 lung, with OVCAR-3 ovarian and in the assay on RPMI-8226 leukemia was greater than 100 µM each time. The TGI in the assay with SK-OV-3 ovarian, in the assay on SNB-75 CNS and with SW-620 colon was greater than 100 µM throughout.
For `O=C(Nc1ccc(-n2cc(-c3ccncc3)c(-c3ccc(O)c(Cl)c3)n2)cc1)c1cc(Cl)cc(Cl)c1`, the GI50 with A498 renal was greater than 32.5 µM; in the assay with CCRF-CEM leukemia it was 1.45 µM; with MDA-MB-231 breast, 0.647 µM; in the assay on NCI-H226 lung, greater than 32.5 µM; with OVCAR-3 ovarian, 1.91 µM; in the assay on RPMI-8226 leukemia, 1.07 µM. Also, the GI50 with SNB-75 CNS is 1.35 µM; with SW-620 colon it was 2.21 µM. The TGI in the assay with A498 renal is greater than 32.5 µM; in the assay on CCRF-CEM leukemia, greater than 32.5 µM; in the assay on MDA-MB-231 breast, 1.45 µM; in the assay on NCI-H226 lung it was greater than 32.5 µM; with OVCAR-3 ovarian it was greater than 32.5 µM; with RPMI-8226 leukemia it was 6.18 µM. For the same molecule, the TGI in the assay on SNB-75 CNS and in the assay with SW-620 colon was greater than 32.5 µM in each case.
As to `C/C=C1/CN2[C@@H](C3=C[C@@H]4[C@@H]5N(C3=O)c3ccccc3[C@@]53CCN5C/C(=C/C)[C@@H]4C[C@H]53)C[C@@]34c5ccccc5N5C(=O)CC=C([C@H]1C[C@H]23)[C@H]54`, the TGI in the assay with A498 renal was 14.5 µM; in the assay on CCRF-CEM leukemia, 2.94 µM; in the assay with MDA-MB-231 breast, 9.19 µM; in the assay on MDA-N, 10.4 µM; with NCI-H226 lung, 16.5 µM; in the assay on OVCAR-3 ovarian, 15.8 µM. The TGI came out at 16.8 µM in the assay on SK-OV-3 ovarian, 17.4 µM in the assay on SNB-75 CNS and 10.4 µM in the assay with SW-620 colon.
Turning to `COc1cc(C(=O)O[C@H](C(=O)NCCNC(=O)[C@@H](OC(=O)c2cc(OC)cc3c(C)cccc23)[C@]2(C)CO2)[C@]2(C)CO2)c2cccc(C)c2c1`, the GI50 in the assay on A498 renal was 2.21 µM; with CCRF-CEM leukemia, less than 0.01 µM; with NCI-H226 lung, 0.66 µM; in the assay with OVCAR-3 ovarian, 0.721 µM; with RPMI-8226 leukemia it was 0.282 µM; in the assay on SK-OV-3 ovarian it was 0.827 µM. Moreover, the GI50 is 0.304 µM in the assay with SNB-75 CNS and less than 0.01 µM in the assay with SW-620 colon. In addition, the TGI was determined as 4.35 µM with A498 renal; 2.11 µM in the assay on NCI-H226 lung; 7.63 µM in the assay with OVCAR-3 ovarian; 10.6 µM with RPMI-8226 leukemia; 9.74 µM with SK-OV-3 ovarian; 1.4 µM in the assay with SNB-75 CNS. The molecule further displayed a TGI in the assay on SW-620 colon greater than 100 µM.
On to `COC(=O)c1c(C)ccc2c(O)c3c(cc12)C(=O)c1c2c(cc(O)c1C3=O)C1(C)OC(C)(O2)C(O)C(N(C)C)C1O` (centres undefined), for which the TGI is 7.46 µM in the assay on A498 renal; 3.21 µM with MDA-MB-231 breast; 2.58 µM with MDA-N; 11.5 µM in the assay on NCI-H226 lung; 9.59 µM in the assay on OVCAR-3 ovarian; greater than 100 µM with SK-OV-3 ovarian. The TGI was 12.7 µM with SNB-75 CNS and greater than 100 µM with SW-620 colon.
As to `N#CC(c1nc2ccccc2s1)c1nc(Cl)ncc1Br` (centres undefined), the TGI with A498 renal was greater than 100 µM; in the assay with MDA-MB-231 breast it was greater than 100 µM; in the assay with MDA-N, greater than 100 µM; with NCI-H226 lung, greater than 100 µM; in the assay with OVCAR-3 ovarian it was 97.7 µM; with RPMI-8226 leukemia, 81.1 µM. Further, the TGI in the assay on SK-OV-3 ovarian was greater than 100 µM; in the assay on SNB-75 CNS, 71 µM; in the assay with SW-620 colon, greater than 100 µM.
On to `OC12C3C4CC5C(C4[C@@H]1Br)C2[C@@](O)(c1c(F)c(F)c(F)c(F)c1F)C53` (some centres undefined), for which the TGI in the assay on A498 renal was greater than 100 µM; in the assay on CCRF-CEM leukemia, greater than 100 µM; with MDA-MB-231 breast it was greater than 100 µM; in the assay with MDA-N, greater than 100 µM; with OVCAR-3 ovarian, 65.8 µM; in the assay with SW-620 colon, greater than 100 µM.
On to `CCOC(O)C(F)(F)F` (centres undefined), for which the TGI with CCRF-CEM leukemia, with MDA-MB-231 breast, in the assay with MDA-N, with NCI-H226 lung, in the assay on OVCAR-3 ovarian and in the assay with SK-OV-3 ovarian was greater than 100 µM throughout. Also, the TGI with SNB-75 CNS and with SW-620 colon was greater than 100 µM each time.

Source of the values: PubChem BioAssay (NCI).
